# Laboratory results as given in patent US4912036A, “Rapid differentiation of bacteria using cyclic polypeptide antibiotics” (Eastman Kodak Company, priority 1986, dated 1990).
# Key:
# P. vulgaris = assay: RIND VII reduction solution assay, ΔOD 635 nm; format: cell-based, Proteus vulgaris; details: P. vulgaris 7 × 10^7 /ml, antibiotic 10^-4 molar
# Description: Bacterial suspensions were prepared by growing the cells in BHT broth to stationary phase overnight at 37° C. P. auruginosa was grown with agitation. About 40 ml of each overnight culture was centrifuged, decanted and washed once with 0.05 molar potassium phosphate buffer or 0.05 molar N-2-hydroxy-ethylpiperazine-N'-2-ethanesulfonic acid (HEPES) buffer, pH 7.8, and resuspended in buffer.
# TERGITOL 7 anionic surfactant was used to differentiate viable bacteria according to the prior art method. Various concentrations of TERGITOL 7 surfactant were mixed with a 10% glucose solution (50 μl), 3-(4,5-dimethyl-2-thiazolyl)-2,5-diphenyl-2N-tetrazolium bromide (MTT) (25 μl at 5 mg/ml methanol) or a RIND VII dispersion (1.5 ml) and phenazine methosulfate ETA (25 μl at 3 mg/ml methanol). The volume of each test solution was brought to 3 ml with potassium phosphate buffer. A cell suspension (100 μl at about 10^8 cells/ml) was then added. The solutions were incubated at 37° C. for 15 and 30 minutes in the presence of either E. coli, a gram(-) bacterium, or S. aureus, a gram(+) bacterium. The amount of dye formed was then determined visually, and graded as follows: "O" indicates no dye formation, +/- indicates faint dye formation, 1+ indicates light dye formation, 2+ indicates moderate dye formation, 3+ indicates strong dye formation, and 4+ indicates very strong dye formation. […]
# S. aureus = assay: Inhibition of RIND IX reduction by various cyclic polypeptide antibiotics; format: cell-based, Staphylococcus aureus; details: for Corrected % Inhibition: 635 nm
# Description: The following materials were used in this example: stock solutions of RIND IX compound dispersion prepared as described above, glucose (10% in water), trimethyl-1,4-benzoquinone ETA (1.5 mg/ml methanol), and the antibiotics (1 mg/ml in dimethylsulfoxide). S. aureus cells were grown as described above. The final cell concentration in the assay mixture was about 4.3×10^8 cells/ml.
# Test solutions were prepared by adding in the order: 1.2 ml of HEPES buffer, 50 μl glucose solution, 1.5 ml of RIND IX dispersion, 100 μl of antibiotic solution, 100 μl of cell suspension and 25 μl of ETA solution. Control solutions were prepared as described in Examples 2 and 3. Optical density readings (OD) were measured at 635 nm at 0 minutes and after incubation at 37° C. for 30 minutes for test and control solutions, and the change in density (ΔOD) was determined. Table VI below lists the results, expressed as corrected percent inhibition of the reduction of the RIND compound. The corrected percent inhibition is calculated by dividing the difference between the ΔOD obtained from the Cell Control without antibiotic and the ΔOD of the test solution, by ΔOD of the Cell Control without antibiotic. All readings were corrected by subtracting readings of the appropriate background Controls.
# Solutions containing 2.9 ml HEPES, 50 μl of the antibiotic solution and 100 μl cell solution were incubated at 37° C. for 30 minutes, centrifuged for 10 minutes and decanted. The resulting pellet was then treated with 1.4 ml HEPES, 50 μl glucose solution, 1.5 ml RIND IX dispersion and 25 μl ETA solution, mixed well and the densities recorded as described above in Method 1. The corrected percent inhibition data was calculated as described in Method 1 above.
# E. cloacae [1] = assay: MTT reduction solution assay, ΔOD 540 nm; format: cell-based, Enterobacter cloacae; details: E. cloacae (-) 5×10^7, gramicidin S 0.00625 mg/ml, 37° C.
# Description: (§1) These examples illustrate the differentiation of bacteria using a tetrazolium salt and phenolic dye as the reducible compounds and two cyclic polypeptide antibiotics according to the present invention. The tetrazolium salt was 3-(4,5-dimethyl-2-thiazolyl) -2,5-diphenyl-2H-tetrazolium bromide (MTT) which forms a colored formazan dye when reduced. The phenolic dye was 2,6-dichloroindophenol (DCIP) which forms a colorless species when reduced.
# (§2) Solutions of the reducible compounds were prepared with the following: HEPES buffer (3 ml, 0.05 molar, pH 7.5), TRITON X-100 nonionic surfactant (1% concentration), glucose (50 μl of 10% in water), tryptose (50 μl of a 10% solution in water), MTT (25 μl of 5 mg/ml methanol) or DCIP (25 μl of 3 mg/ml methanol) and phenazine methosultate ETA (25 μl of 3 mg/ml methanol).
# (§3) Test solutions were prepared from the following: reducible compound solution from above (200 μl), 50 μl of either gramicidin S solution (6 mg/ml methanol and 9 ml of buffer) or tyrocidin solution (100 mg/ml methanol and 8 ml of buffer) and 50 μl of cell suspension. […] The change in optical density (ΔOD) was determined after 30 minutes at 37° C. at 540 nm for the MTT assay and at 620 nm for the DCIP assay using a commercially available spectrophotometer.
# K. pneumoniae = assay: MTT reduction solution assay, ΔOD 540 nm; format: cell-based, Klebsiella pneumoniae; details: K. pneumoniae (-) 5×10^7, gramicidin S 0.00625 mg/ml, 37° C.
# Description: as §1, §2, §3
# S. faecalis = assay: DCIP reduction solution assay, ΔOD 620 nm; format: cell-based, Streptococcus faecalis; details: S. faecalis (+) 5×10^7, gramicidin S 0.00625 mg/ml, 37° C.
# Description: as §1, §2, §3
# E. cloacae [2] = assay: DCIP reduction solution assay, ΔOD 620 nm; format: cell-based, Enterobacter cloacae; details: E. cloacae (-) 5×10^7, gramicidin S 0.00625 mg/ml, 37° C.
# Description: as §1, §2, §3
# P. aeruginosa = assay: DCIP reduction solution assay, ΔOD 620 nm; format: cell-based, Pseudomonas aeruginosa; details: P. aeruginosa (-) 5×10^7, gramicidin S 0.00625 mg/ml, 37° C.
# Description: as §1, §2, §3
substance,measurement,setting,value
gramicidin S,Corrected ΔOD (15 Minutes),P. vulgaris,> 2.0
same,"inhibition of the ability of S. aureus to reduce the RIND compound, in words",S. aureus; Methods 1 and 2,"inhibits the ability of S. aureus, a gram-positive bacterium, to reduce the RIND compound"
same,Corrected % Inhibition,"S. aureus; Test Method 1 (antibiotic in the test solution), S. aureus about 4.3×10^8 cells/ml, 100 μl of 1 mg/ml antibiotic solution, 30 minutes at 37° C.",95.6%
same,Corrected % Inhibition,"S. aureus; Test Method 2 (cells preincubated with 50 μl antibiotic solution 30 minutes, centrifuged, pellet assayed), S. aureus",80.0%
same,"ΔOD, 540 nm after 30 Minutes",E. cloacae [1],0.931
same,"ΔOD, 540 nm after 30 Minutes",K. pneumoniae,1.207
same,"ΔOD, 620 nm after 30 Minutes",S. faecalis,0.066
same,"ΔOD, 620 nm after 30 Minutes",E. cloacae [2],0.997
same,"ΔOD, 620 nm after 30 Minutes",P. aeruginosa,1.040
